Read-outs that look alike come from different tables or passages of the source.
Tests used:
[1] = test system: Phytophthora infestans (PHYTIN); assay: microbe, parasite or virus in culture; assay type: cell-based; conditions: Phytophthora infestans, read-out: PHYTIN in vitro Growth Inhibition
[2] = test system: Magnaporthe grisea (Pyricularia oryzae—PYRIOR); assay: microbe, parasite or virus in culture; assay type: cell-based; conditions: Pyricularia oryzae, read-out: PYRIOR in vitro Growth Inhibition
[3] = test system: Puccinia recondita—PUCCRT; assay: Brown Rust of Wheat, in vivo whole plant, 24 Hour Protectant
Ustilago maydis (USTIMA) = assay: microbe, parasite or virus in culture; assay type: cell-based; conditions: Mycosarcoma maydis, read-out: USTIMA in vitro Growth Inhibition
[4] = test system: Rhizoctonia solani (RHIZSO); assay: microbe, parasite or virus in culture; assay type: cell-based; conditions: Rhizoctonia solani, read-out: RHIZSO in vitro Growth Inhibition
[5] = test system: Stagonospora nodorum (Leptosphaeria nodorum—LEPTNO); assay: In vitro fungal growth inhibition, Stagonospora nodorum (LEPTNO); assay type: cell-based; conditions: Leptosphaeria; 25 ppm in growth medium; read-out: LEPTNO in vitro Growth Inhibition
[6] = test system: Leptosphaeria nodorum—LEPTNO; assay: Glume Blotch of Wheat, in vivo whole plant, 24 Hour Protectant
[7] = test system: Mycosphaerella graminicola (Septoria tritici—SEPTTR); assay: In vitro fungal growth inhibition, Mycosphaerella graminicola (SEPTTR); assay type: cell-based; conditions: Zymoseptoria tritici; 25 ppm in growth medium; read-out: SEPTTR in vitro Growth Inhibition
Septoria tritici—SEPTTR = assay: Leaf Blotch of Wheat, in vivo whole plant, 24 Hour Protectant
Erysiphe graminis—ERYSGT = assay: Powdery Mildew of Wheat, in vivo whole plant, 24 Hour Protectant
[8] = test system: Phytophthora infestans—PHYTIN; assay: whole plant or invertebrate; assay type: in vivo; conditions: Phytophthora, in Solanum lycopersicum, 24 h, read-out: PHYTIN in vivo 1 Day Protectant
[9] = Puccinia; 100 ppm spray, wheat, 24 hour protectant; control of fungal infection vs untreated plants; read-out: PUCCRT in vivo 1 Day Protectant
[10] = Leptosphaeria; 100 ppm spray, wheat, 24 hour protectant; control of fungal infection vs untreated plants; read-out: LEPTNO in vivo 1 Day Protectant
[11] = Zymoseptoria tritici, 24 h, 100 ppm spray, wheat, 24 hour protectant; control of fungal infection vs untreated plants; read-out: SEPTTR in vivo 1 Day Protectant
[12] = Erysiphe; 100 ppm spray, wheat, 24 hour protectant; control of fungal infection vs untreated plants; read-out: ERYSGT in vivo 1 Day Protectant
[13] = Puccinia; 100 ppm spray, 24 hour protectant, wheat; control of fungal infection vs untreated plants; read-out: PUCCRT in vivo 1 Day Protectant
[14] = Leptosphaeria; 100 ppm spray, 24 hour protectant, wheat; control of fungal infection vs untreated plants; read-out: LEPTNO in vivo 1 Day Protectant
[15] = Erysiphe; 100 ppm spray, 24 hour protectant, wheat; control of fungal infection vs untreated plants; read-out: ERYSGT in vivo 1 Day Protectant
[16] = Zymoseptoria tritici, 24 h, 100 ppm spray, 24 hour protectant, wheat; control of fungal infection vs untreated plants; read-out: SEPTTR in vivo 1 Day Protectant

Row | SMILES | inhibition at 25 ppm [1] [%] | inhibition at 25 ppm [2] [%] | pest or weed control at 100 ppm [3, 9] [%] | inhibition at 25 ppm (Ustilago maydis (USTIMA)) [%] | inhibition at 25 ppm [4] [%] | inhibition at 25 ppm [5] [%] | pest or weed control at 100 ppm [6, 10] [%] | inhibition at 25 ppm [7] [%] | pest or weed control at 100 ppm (Septoria tritici—SEPTTR; [11]) [%] | pest or weed control at 100 ppm (Erysiphe graminis—ERYSGT; [12]) [%] | pest or weed control at 100 ppm [8] [%] | pest or weed control at 100 ppm [3, 13] [%] | pest or weed control at 100 ppm [6, 14] [%] | SEPTTR in vivo 1 Day Protectant (Septoria tritici—SEPTTR; 100 ppm spray, 24 hour protectant, wheat; control of fungal infection vs untreated plants) | pest or weed control at 100 ppm (Erysiphe graminis—ERYSGT; [15]) [%] | pest or weed control at 100 ppm (Septoria tritici—SEPTTR; [16]) [%] | PUCCRT in vivo 1 Day Protectant ([3]; 100 ppm spray, wheat, 24 hour protectant; control of fungal infection vs untreated plants)
1 | COc1ccnc(C(=O)Nc2ccccc2Oc2ccc(Cl)cc2)c1O [Compound 438] | < 80 | > 80 | < 25 | < 80 | < 80 | > 80 | < 25 | > 80 | < 25 | < 25 | < 25 | – | – | – | – | – | –
2 | COc1ccnc(C(=O)Nc2ccccc2Oc2ccccc2C#N)c1O [Compound 418] | < 80 | < 80 | 25 to 74 | < 80 | < 80 | < 80 | < 25 | < 80 | < 25 | < 25 | < 25 | – | – | – | – | – | –
3 | COc1ccnc(C(=O)N[C@@H]2C(=O)O[C@@H](C)C[C@@H](C)C(=O)O[C@@H]2C)c1O [Compound 381] | < 80 | < 80 | 25 to 74 | < 80 | < 80 | > 80 | < 25 | > 80 | < 25 | < 25 | < 25 | – | – | – | – | – | –
4 | COc1ccnc(C(=O)NC2CC(C)(C)C(Oc3cc(C(F)(F)F)cc(C(F)(F)F)n3)C(C)(C)C2)c1O (stereo not shown) [Compound 272] | < 80 | < 80 | – | < 80 | < 80 | < 80 | – | > 80 | – | – | < 25 | < 25 | 25 to 74 | + + | < 25 | – | –
5 | O=C(N[C@H]1CC2CC1[C@@H]1CCC[C@H]21)c1ncccc1O (stereo partly shown) [Compound 206] | < 80 | > 80 | – | < 80 | > 80 | > 80 | – | > 80 | – | – | < 25 | < 25 | < 25 | – | < 25 | < 25 | –
6 | COc1ccnc(C(=O)NC2CC(C)(C)C(OC(=O)CC(C)C)C(C)(C)C2)c1O (stereo not shown) [Compound 267] | > 80 | < 80 | – | > 80 | < 80 | > 80 | – | < 80 | – | – | < 25 | 25 to 74 | 25 to 74 | – | < 25 | < 25 | –
7 | COc1ccnc(C(=O)N[C@H](C(=O)O[C@@H](C)[C@H](OC(=O)C(C)C)[C@@H](Cc2ccccc2)C(=O)OCc2ccccc2)[C@@H](C)OC(C)=O)c1O [Compound 361] | > 80 | > 80 | – | < 80 | < 80 | < 80 | 25 to 74 | > 80 | < 25 | < 25 | < 25 | – | – | – | – | – | + +
8 | COc1ccnc(C(=O)NC2O[C@H](CO)[C@H]3OC(C)(C)O[C@@H]23)c1O (stereo partly shown) [Compound 329] | < 80 | < 80 | 25 to 74 | < 80 | < 80 | < 80 | 25 to 74 | < 80 | 25 to 74 | < 25 | < 25 | – | – | – | – | – | –

From patent publication US6706740B2, “Fungicidal heterocyclic aromatic amides and their compositions, methods of use and preparation” (Dow AgroSciences LLC, priority 1999, dated 2004)
